Read-outs that look alike come from different tables or passages of the source.
What was measured:
Set-up in all cases: purchased Milipore (Millipore)
[1] = target: T1, Human adrenergic α2B receptor (Homo sapiens, UniProt P18089); assay: Radioligand binding, adrenergic α2B (Protocol Group B); conditions: Protocol Group B; for Percentage inhibition of ligand binding, Adrenergic α2B (10 nM): 10 nM compound, 0.01 µM; for Percentage inhibition of ligand binding, Adrenergic α2B (30 nM): 0.03 µM
T1 sequence (P18089 1-450): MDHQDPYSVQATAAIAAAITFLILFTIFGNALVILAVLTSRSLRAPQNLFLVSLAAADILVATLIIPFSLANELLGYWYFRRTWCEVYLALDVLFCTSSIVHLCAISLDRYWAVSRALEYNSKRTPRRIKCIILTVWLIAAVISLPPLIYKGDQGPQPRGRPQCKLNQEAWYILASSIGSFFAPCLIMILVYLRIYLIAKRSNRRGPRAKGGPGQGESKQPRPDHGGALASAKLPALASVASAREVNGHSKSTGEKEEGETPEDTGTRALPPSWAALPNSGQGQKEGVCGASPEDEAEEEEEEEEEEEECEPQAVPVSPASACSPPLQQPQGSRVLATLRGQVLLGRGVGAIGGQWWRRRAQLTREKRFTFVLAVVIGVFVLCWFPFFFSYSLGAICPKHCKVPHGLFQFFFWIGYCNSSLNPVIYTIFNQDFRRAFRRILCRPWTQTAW
Summary of the method: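 Compounds at various concentrations in 1% DMSO were tested on recombinant membranes in Tris-HCl pH 7.4 buffer containing MgCl2, CaCl2 and 0.2% BSA.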

[2] = target: T2, Human adrenergic α2A receptor (Homo sapiens, UniProt P08913); assay: Radioligand binding, adrenergic α2A (Protocol Group B); conditions: Protocol Group B; for inhibition at 0.3 µM / Percentage inhibition of ligand binding, Adrenergic α2A (0.3 μM): 0.3 μM compound; for inhibition at 0.3 µM: read-out: Percentage inhibition of ligand binding, Adrenergic α2A (0.3 μM)
T2 sequence (P08913 1-465): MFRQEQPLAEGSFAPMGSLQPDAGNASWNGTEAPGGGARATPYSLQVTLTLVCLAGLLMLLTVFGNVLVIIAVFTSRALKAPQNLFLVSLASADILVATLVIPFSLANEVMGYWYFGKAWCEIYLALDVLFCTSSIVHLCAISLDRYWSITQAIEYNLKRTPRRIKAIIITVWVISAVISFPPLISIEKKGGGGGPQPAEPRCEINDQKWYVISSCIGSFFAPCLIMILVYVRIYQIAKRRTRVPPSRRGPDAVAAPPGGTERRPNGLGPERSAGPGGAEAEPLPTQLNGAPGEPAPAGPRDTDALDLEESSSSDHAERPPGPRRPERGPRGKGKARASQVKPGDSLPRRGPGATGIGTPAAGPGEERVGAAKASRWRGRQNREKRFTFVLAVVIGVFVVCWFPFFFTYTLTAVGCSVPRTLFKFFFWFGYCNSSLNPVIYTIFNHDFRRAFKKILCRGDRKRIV
Summary of the method: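 Compounds (1% DMSO vehicle, various concentrations) competed against 2 nM [^3H]MK-912 on recombinant receptor membranes for 60 min at 25° C, Tris-HCl pH 7.4 buffer with Mg2+, Ca2+, BSA. Bound radioligand filtered and counted; 10 μM rauwolscine set nonspecific binding. Values: percent inhibition of specific binding or estimated Ki.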

[3] = target: T3, Human adrenergic α1B receptor (Homo sapiens, UniProt P35368); assay: Radioligand binding, adrenergic α1B (Protocol Group B); conditions: Protocol Group B; for Percentage inhibition of ligand binding, Adrenergic α1B (0.1 μM) / inhibition at 0.1 µM: 0.1 μM compound; for inhibition at 0.3 µM / Percentage inhibition of ligand binding, Adrenergic α1B (0.3 μM): 0.3 μM compound; for inhibition at 0.3 µM: read-out: Percentage inhibition of ligand binding, Adrenergic α1B (0.3 μM); for inhibition at 0.1 µM: read-out: Percentage inhibition of ligand binding, Adrenergic α1B (0.1 μM)
T3 sequence (P35368 1-520): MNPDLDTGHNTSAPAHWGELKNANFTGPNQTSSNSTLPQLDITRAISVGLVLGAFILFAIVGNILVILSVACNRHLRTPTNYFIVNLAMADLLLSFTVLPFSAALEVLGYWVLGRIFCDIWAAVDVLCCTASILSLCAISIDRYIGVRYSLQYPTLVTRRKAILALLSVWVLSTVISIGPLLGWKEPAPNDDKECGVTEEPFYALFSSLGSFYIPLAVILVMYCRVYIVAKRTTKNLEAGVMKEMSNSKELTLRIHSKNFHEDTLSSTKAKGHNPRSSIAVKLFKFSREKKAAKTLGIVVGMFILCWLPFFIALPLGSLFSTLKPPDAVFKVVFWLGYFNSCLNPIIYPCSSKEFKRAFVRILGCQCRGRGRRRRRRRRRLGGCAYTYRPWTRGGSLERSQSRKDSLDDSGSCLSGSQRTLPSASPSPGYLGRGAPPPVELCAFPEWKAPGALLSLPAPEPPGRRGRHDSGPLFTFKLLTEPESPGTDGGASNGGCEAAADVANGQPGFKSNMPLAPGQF
Summary of the method: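 Values are percent inhibition of specific [3H]prazosin (0.3 nM) binding or estimated Ki, from filtration counting. Human α1B recombinant membranes, Tris-HCl pH 7.4 buffer with MgCl2 and EDTA, 60 min at 25 °C, 1% DMSO vehicle; 10 μM prazosin defined nonspecific binding.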

| Compound | Percentage inhibition of ligand binding, Adrenergic α2B (10 nM) [1] | Percentage inhibition of ligand binding, Adrenergic α2B (30 nM) ([1]; 30 nM compound) | inhibition at 0.1 µM ([1]; 0.1 μM compound, read-out: Percentage inhibition of ligand binding, Adrenergic α2B (0.1 μM)) | Percentage inhibition of ligand binding, Adrenergic α2A (0.1 μM) ([2]; 0.1 μM compound) | inhibition at 0.3 µM [2] | Percentage inhibition of ligand binding, Adrenergic α1B (0.1 μM) [3] | inhibition at 0.3 µM [3] | Percentage inhibition of ligand binding, Adrenergic α2B (0.1 μM) ([1]; 0.1 μM compound) | Percentage inhibition of ligand binding, Adrenergic α2A (0.3 μM) [2] | Percentage inhibition of ligand binding, Adrenergic α1B (0.3 μM) [3] | inhibition at 0.03 µM ([1]; 30 nM compound, read-out: Percentage inhibition of ligand binding, Adrenergic α2B (30 nM)) | inhibition at 0.1 µM [3] | Ki ([1]; Ki α2B, estimated Ki) | inhibition at 0.01 µM ([1]; read-out: Percentage inhibition of ligand binding, Adrenergic α2B (10 nM), 10 nM compound) | inhibition at 0.03 µM ([1]; read-out: Percentage inhibition of ligand binding, Adrenergic α2B (30 nM), 30 nM compound) | inhibition at 0.1 µM ([1]; read-out: Percentage inhibition of ligand binding, Adrenergic α2B (0.1 μM), 0.1 μM compound) | inhibition at 0.1 µM ([2]; 0.1 μM compound, read-out: Percentage inhibition of ligand binding, Adrenergic α2A (0.1 μM)) |
| --- | --- | --- | --- | --- | --- | --- | --- | --- | --- | --- | --- | --- | --- | --- | --- | --- | --- |
| Cc1cc(F)c2c(c1)c1c(n2CC(C)(O)c2ccncc2)CCN2CCCC12 (single isomer, unassigned) [81c] | −2% | 0% | 17% | 3% | 8% | 2% | 11% | – | – | – | – | – | – | – | – | – | – |
| Cc1cc(F)c2c(c1)c1c(n2CC(C)(O)c2ccncc2)CCN2CCCC12 (single isomer, unassigned) [81d] | −7% | 8% | – | 11% | – | 5% | – | 18% | 6% | 9% | – | – | – | – | – | – | – |
| CC(O)(Cn1c2c(c3cc(Cl)cc(F)c31)CN1CCCC1C2)c1ccncc1 (single isomer, unassigned) [86a] | −2% | – | – | −4% | 11% | – | – | – | – | 30% | 23% | 2% | – | – | – | – | – |
| CC(O)(Cn1c2c(c3cc(Cl)cc(F)c31)CN1CCCC1C2)c1ccncc1 (single isomer, unassigned) [86b] | 14% | 17% | – | 11% | – | 3% | – | – | 14% | 15% | – | – | – | – | – | – | – |
| CC(O)(Cn1c2c(c3cc(Cl)cc(F)c31)CN1CCCC1C2)c1ccncc1 (single isomer, unassigned) [86d] | 13% | 28% | – | 7% | – | 3% | – | – | 11% | 13% | – | – | – | – | – | – | – |
| CC(O)(Cn1c2c(c3cc(F)cc(Cl)c31)C1CCCN1CC2)c1cccnc1 (single isomer, unassigned) [89a] | −9% | −9% | – | 23% | 9% | 12% | 13% | – | – | – | – | – | – | – | – | – | – |
| CC(O)(Cn1c2c(c3cc(F)cc(Cl)c31)C1CCCN1CC2)c1cccnc1 (single isomer, unassigned) [89b] | 0% | 1% | – | 8% | – | 3% | – | – | 6% | 9% | – | – | – | – | – | – | – |
| Cc1cc(Cl)c2c(c1)c1c(n2CC(C)(O)c2ccncc2)CCN2CCCC12 (single isomer, unassigned) [91c] | −16% | −4% | – | −14% | – | −20% | – | – | −3% | −7% | – | – | – | – | – | – | – |
| Cc1cc(Cl)c2c(c1)c1c(n2CC(C)(O)c2ccncc2)CCN2CCCC12 (single isomer, unassigned) [91d] | −1% | 24% | – | −2% | – | −19% | – | – | 11% | 6% | – | – | – | – | – | – | – |
| Cc1ccc2c(c1)c1c(n2CC(C)(O)c2cccnc2)CC2CCC1N2C (single isomer, unassigned) [101a] | – | – | – | – | 21% | – | 17% | – | – | – | – | 6% | 16.2 nM | 23% | 38% | 71% | 7% |
| Cc1ccc2c(c1)c1c(n2CC(C)(O)c2cccnc2)CC2CCC1N2C (single isomer, unassigned) [101b] | 2% | 3% | – | 1% | – | −3% | 5% | 32% | 8% | – | – | – | – | – | – | – | – |
| Cc1ccc2c(c1)c1c(n2CC(C)(O)c2cccnc2)CC2CCC1N2C (single isomer, unassigned) [101c] | 7% | 5% | – | 6% | – | 12% | – | 16% | 7% | 7% | – | – | – | – | – | – | – |
